Results published in patent US8962609B2, “Pyrimidine compounds as inhibitors of protein kinases IKK epsilon and/or TBK-1, processes for their preparation, and pharmaceutical compositions containing them” (Domainex Limited, priority 2010, dated 2015).
Like-named read-outs stand apart in the source and are kept apart here.

Key:
IKKε = IKKε (Homo sapiens (Human), UniProt Q14164); assay: IKKε time-resolved fluorescence Lanthascreen kinase inhibition assay; type: biochemical
Method: (§1) Compounds of the invention (synthesised as described below) were tested for activity against the IKKε and TBK-1 enzyme as follows:
(§2) Inhibitions studies were performed using a time-resolved fluorescence-based Lanthascreen™ assay. Phosphorylation of a fluorescein-labelled substrate peptide is measured using terbium-labeled phosphospecific antibodies. Terbium is excited at 340 nm and the FRET energy transfer to fluorescein is measured at 495 and 520 nm. The emission ratio between 520 and 495 is a measure of the level of phosphorylation of the substrate by the kinase.
(§3) Kinase inhibition assays (10 μL) were performed at 20° C. in 384-well plate format. Compound IC50 values were determined at the apparent Km for ATP (20 μM) based on a radiometric assay (Invitrogen) using 8 or 10 point curves in duplicate. The final reaction conditions contained 400 nM fluorescein-IkBα substrate ([…]), 20 μM ATP, 2 nM or 8 nM IKKε or TBK1 kinase respectively, and 3% DMSO in kinase assay buffer consisting of 50 mM HEPES (pH 7.5), 10 mM MgCl, 1 mM EGTA, 0.01% Brij-35.
(§4) Compound dilutions were prepared from 10 mM DMSO stocks by dilution into DMSO.
(§5) The kinase phosphorylation assay was initiated by the addition of the kinase and the reaction was allowed to proceed for 1 hr or 2.5 hr for IKKε and TBK-1 kinase respectively. […] The reaction was stopped by the addition of 10 mM EDTA, and phosphorylation was detected after a 1 hr incubation with 1.5 nM terbium-labelled antibody against phosphorylation at Serine 32 on the IkBα[…]peptide, both in TR-FRET dilution buffer (Invitrogen).
(§6) In the data presented for IKKε, <9 μM means having an activity in the range from 300 nM≦9 μM; and <300 nM means having an activity in the range 30 nM≦300 nM; and for the data presented for TBK-1, <3 μM means having an activity in the range 300 nM≦3 μM, and <300 nM means having an activity in the range 30 nM≦300 nM.

IKKβ = IKKβ (Homo sapiens (Human), UniProt O14920); assay: IKKβ radiolabelled P33 ATP assay (Kinase Hotspot Technology); type: biochemical; details: for inhibition at 1 µM: read-out: IKK-β percentage inhibition (in brackets); for IC50: single point, read-out: Concentration of compounds required for ~ 50% inhibition, IKK-β
Method: (§7) The compounds of examples DMX-1,8,9,14 and 16 were tested for activity against TBK1, IKKβ, Jnk1 and Jnk3 in addition to IKK-ε and TBK-1. TBK-1, IKKβ, Jnk1 and Jnk3 were screened using radiolabelled P^33 ATP using the Kinase Hotspot Technology of Reaction Biology Corp. Screening against Jnk-1 and Jnk-3 was carried out at the Km for ATP. IKK-ε and TBK-1 screening was also carried out as described above at the Km for ATP for these enzymes. […] TBK-1, IKKβ and Jnk1 were screened using radiolabelled P^33 ATP using the Kinase Hotspot Technology of Reaction Biology Corp. IKK-ε and TBK-1 screening was also carried out as described above at the Km for ATP for these enzymes.

Jnk3 = Jnk3 (Homo sapiens (Human), UniProt P53779); assay: Jnk3 radiolabelled P33 ATP assay (Kinase Hotspot Technology); type: biochemical; details: for IC50: at the Km for ATP, read-out: Concentration of compounds required for ~ 50% inhibition, Jnk-3
Method: as §7

TBK-1 = TBK-1 (Homo sapiens (Human), UniProt Q9UHD2); assay: biochemical
Method: as §1, §2, §3, §4, §5, §6

Jnk1 = Jnk1 (Homo sapiens (Human), UniProt P45983); assay: Jnk1 radiolabelled P33 ATP assay (Kinase Hotspot Technology); type: biochemical; details: for IC50: read-out: Concentration of compounds required for ~ 50% inhibition, Jnk-1; for inhibition at 1 µM: single point at the concentration (1000 nM), read-out: Jnk-1 percentage inhibition (in brackets)
Method: as §7

[1] = 20 μM ATP (apparent Km), 2 nM kinase, 1 hr, values are activity bands, read-out: Inhibition of IKKε IC50
[2] = at the Km for ATP, read-out: Concentration of compounds required for ~ 50% inhibition, IKK-ε
[3] = 20 μM ATP (apparent Km), 8 nM kinase, 2.5 hr, values are activity bands, read-out: Inhibition of TBK-1 IC50
[4] = at the Km for ATP, read-out: Concentration of compounds required for ~ 50% inhibition, TBK-1
[5] = single point at the concentration (1000 nM), 1 μM ATP
[6] = single point at the concentration (1000 nM), 10 μM ATP

Jnk1, sequence (P45983 whole entry): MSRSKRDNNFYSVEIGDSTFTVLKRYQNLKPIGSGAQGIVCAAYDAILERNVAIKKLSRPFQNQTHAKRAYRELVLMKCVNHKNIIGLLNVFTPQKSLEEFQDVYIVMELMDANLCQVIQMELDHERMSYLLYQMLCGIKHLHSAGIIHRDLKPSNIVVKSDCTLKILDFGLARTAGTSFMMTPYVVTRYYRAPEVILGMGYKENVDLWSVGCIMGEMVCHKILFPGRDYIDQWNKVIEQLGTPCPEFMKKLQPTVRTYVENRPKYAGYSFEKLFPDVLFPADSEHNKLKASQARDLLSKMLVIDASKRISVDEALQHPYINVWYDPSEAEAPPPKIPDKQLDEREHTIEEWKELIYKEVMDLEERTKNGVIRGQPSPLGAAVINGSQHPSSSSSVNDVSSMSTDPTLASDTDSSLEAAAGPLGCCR
IKKε, sequence (Q14164 whole entry): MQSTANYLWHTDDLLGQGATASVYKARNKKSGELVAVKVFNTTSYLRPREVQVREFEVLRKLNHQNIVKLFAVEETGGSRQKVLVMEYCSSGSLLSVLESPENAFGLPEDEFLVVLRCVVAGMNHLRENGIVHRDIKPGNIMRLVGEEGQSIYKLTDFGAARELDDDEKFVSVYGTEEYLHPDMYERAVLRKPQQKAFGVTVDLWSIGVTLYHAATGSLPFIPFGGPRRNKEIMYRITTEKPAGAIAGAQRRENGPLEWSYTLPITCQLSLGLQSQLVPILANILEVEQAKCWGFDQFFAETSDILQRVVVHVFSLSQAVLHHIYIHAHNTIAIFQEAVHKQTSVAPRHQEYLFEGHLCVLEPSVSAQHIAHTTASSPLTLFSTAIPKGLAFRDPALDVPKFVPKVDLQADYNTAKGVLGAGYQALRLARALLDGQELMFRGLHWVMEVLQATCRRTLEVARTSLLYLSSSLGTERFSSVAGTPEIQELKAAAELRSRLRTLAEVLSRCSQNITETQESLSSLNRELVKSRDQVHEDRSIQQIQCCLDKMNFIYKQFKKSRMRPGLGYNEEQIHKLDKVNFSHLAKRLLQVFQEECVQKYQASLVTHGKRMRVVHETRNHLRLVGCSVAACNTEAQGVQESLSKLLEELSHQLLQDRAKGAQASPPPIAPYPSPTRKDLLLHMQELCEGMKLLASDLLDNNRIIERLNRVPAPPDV
Jnk3, sequence (P53779 whole entry): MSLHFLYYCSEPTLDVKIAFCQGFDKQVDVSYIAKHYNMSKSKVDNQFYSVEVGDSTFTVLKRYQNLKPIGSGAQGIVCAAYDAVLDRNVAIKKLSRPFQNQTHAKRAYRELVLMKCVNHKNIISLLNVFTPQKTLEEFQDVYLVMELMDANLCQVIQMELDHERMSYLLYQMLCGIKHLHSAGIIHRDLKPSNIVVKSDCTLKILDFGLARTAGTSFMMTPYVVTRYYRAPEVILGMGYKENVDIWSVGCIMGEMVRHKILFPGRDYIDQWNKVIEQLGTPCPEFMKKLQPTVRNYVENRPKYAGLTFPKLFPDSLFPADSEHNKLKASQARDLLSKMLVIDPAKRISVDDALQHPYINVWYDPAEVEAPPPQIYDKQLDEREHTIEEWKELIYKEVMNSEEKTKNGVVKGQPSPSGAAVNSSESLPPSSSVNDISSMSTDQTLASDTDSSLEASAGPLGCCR
TBK-1, sequence (Q9UHD2 whole entry): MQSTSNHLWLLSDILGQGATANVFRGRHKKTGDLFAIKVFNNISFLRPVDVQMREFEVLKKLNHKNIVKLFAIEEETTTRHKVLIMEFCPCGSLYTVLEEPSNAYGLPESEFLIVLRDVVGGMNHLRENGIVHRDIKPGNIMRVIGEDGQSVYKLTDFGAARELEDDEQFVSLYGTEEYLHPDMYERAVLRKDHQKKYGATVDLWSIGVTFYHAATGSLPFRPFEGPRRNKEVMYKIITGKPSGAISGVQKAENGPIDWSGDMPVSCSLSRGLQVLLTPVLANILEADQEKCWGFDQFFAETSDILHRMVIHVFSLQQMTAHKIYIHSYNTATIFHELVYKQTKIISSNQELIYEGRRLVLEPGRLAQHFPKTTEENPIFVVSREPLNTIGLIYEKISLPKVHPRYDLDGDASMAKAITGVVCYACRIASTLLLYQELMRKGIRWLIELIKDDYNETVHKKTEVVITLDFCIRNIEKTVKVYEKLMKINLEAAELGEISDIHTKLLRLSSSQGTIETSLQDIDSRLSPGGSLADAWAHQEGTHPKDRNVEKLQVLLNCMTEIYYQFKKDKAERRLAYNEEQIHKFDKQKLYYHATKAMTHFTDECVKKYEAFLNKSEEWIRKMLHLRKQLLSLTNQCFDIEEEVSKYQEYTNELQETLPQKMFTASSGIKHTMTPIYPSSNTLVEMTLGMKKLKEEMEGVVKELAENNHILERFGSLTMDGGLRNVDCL
IKKβ, sequence (O14920 whole entry): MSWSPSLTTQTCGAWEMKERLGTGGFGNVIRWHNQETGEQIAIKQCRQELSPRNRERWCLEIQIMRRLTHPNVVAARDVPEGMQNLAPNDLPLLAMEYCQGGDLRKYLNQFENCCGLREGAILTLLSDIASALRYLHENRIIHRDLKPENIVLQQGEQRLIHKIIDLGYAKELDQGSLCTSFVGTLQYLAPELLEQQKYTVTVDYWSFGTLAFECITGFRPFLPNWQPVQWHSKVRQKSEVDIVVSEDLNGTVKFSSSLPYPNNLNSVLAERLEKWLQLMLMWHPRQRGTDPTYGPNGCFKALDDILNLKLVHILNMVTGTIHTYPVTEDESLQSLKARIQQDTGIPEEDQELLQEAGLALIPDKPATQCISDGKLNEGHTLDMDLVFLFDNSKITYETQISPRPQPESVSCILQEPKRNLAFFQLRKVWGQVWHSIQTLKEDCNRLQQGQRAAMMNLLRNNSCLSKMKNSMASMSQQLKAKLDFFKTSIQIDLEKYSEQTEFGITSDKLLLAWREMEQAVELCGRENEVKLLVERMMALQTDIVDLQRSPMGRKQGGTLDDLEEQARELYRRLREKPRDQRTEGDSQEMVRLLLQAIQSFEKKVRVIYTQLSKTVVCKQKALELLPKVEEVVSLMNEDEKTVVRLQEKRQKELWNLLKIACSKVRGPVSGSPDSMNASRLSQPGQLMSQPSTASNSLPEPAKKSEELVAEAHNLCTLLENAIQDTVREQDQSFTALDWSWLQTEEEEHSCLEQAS

Row | Compound | IC50 (IKKε; [1]) [nM] | IC50 (IKKε; [2]) [nM] | IC50 (TBK-1; [3]) [nM] | IC50 (TBK-1; [4]) [nM] | further results
1 | N#Cc1cc(-c2ccnc(Nc3cccc(C(N)=O)c3)n2)ccc1N1CCCC1 [DMX-1, 3-[4-(3-cyano-4-pyrrolidin-1-yl-phenyl)-pyrimidin-2-ylamino]-benzamide] | < 30 | 2 | < 30 | 4 | inhibition at 1 µM (IKKβ): 48%; IC50 (IKKβ; 1 μM ATP): 1000 nM; IC50 (Jnk3): > 10 µM; IC50 (Jnk1; at the Km for ATP): 254 nM
2 | N#Cc1cc(-c2ccnc(Nc3ccc(C(N)=O)cc3)n2)ccc1N1CCCC1 [DMX-8] | < 30 | 3 | < 30 | 3 | inhibition at 1 µM (IKKβ; [5]): 50%; IC50 (IKKβ; 1 μM ATP): 1000 nM; IC50 (Jnk3): > 10 µM; IC50 (Jnk1; at the Km for ATP): 354 nM
3 | CC(=O)Nc1ccc(Nc2nccc(-c3ccc(N4CCCC4)c(C#N)c3)n2)cc1 [DMX-9] | < 30 | 3 | < 30 | 3 | inhibition at 1 µM (IKKβ; [5]): 34%; IC50 (IKKβ; 1 μM ATP): 1000 nM; IC50 (Jnk3): 10 µM; inhibition at 10 µM (Jnk3; at the printed concentration (10000 nM), Km for ATP, read-out: Jnk-3 percentage inhibition (in brackets)): 51%; IC50 (Jnk1; at the Km for ATP): 262 nM
4 | N#Cc1cc(-c2ccnc(Nc3ccc4c(c3)CC(=O)N4)n2)ccc1N1CCCC1 [DMX-14] | < 30 | 3 | < 30 | 2 | inhibition at 1 µM (IKKβ; [5]): 45%; IC50 (IKKβ; 1 μM ATP): 1000 nM; IC50 (Jnk3): > 10 µM; IC50 (Jnk1; at the Km for ATP): 201 nM
5 | N#Cc1cc(-c2ccnc(Nc3ccc(N4CCOCC4)nc3)n2)ccc1N1CCCC1 [DMX-16] | < 30 | 2 | < 30 | 1 | inhibition at 1 µM (IKKβ; [5]): 43%; IC50 (IKKβ; 1 μM ATP): 1000 nM; IC50 (Jnk3): > 10 µM; IC50 (Jnk1; at the Km for ATP): 222 nM
6 | Cn1cc(Nc2nccc(-c3ccc(N4CCCC4)c(C#N)c3)n2)cn1 [DMX-56] | < 30 | 8 | < 30 | 3 | inhibition at 1 µM (IKKβ; [6]): 56%; IC50 (IKKβ; 10 μM ATP): 1000 nM; inhibition at 1 µM (Jnk1; 10 μM ATP): 21%; IC50 (Jnk1; single point, 10 μM ATP): > 1000 nM
7 | CC(=O)Nc1ccc(Nc2nccc(-c3ccc(N4CC(O)C4)c(C#N)c3)n2)cn1 [DMX-66] | < 30 | 21 | < 30 | 24 | inhibition at 1 µM (IKKβ; [6]): 43%; IC50 (IKKβ; 10 μM ATP): 1000 nM; inhibition at 1 µM (Jnk1; 10 μM ATP): 52%; IC50 (Jnk1; single point, 10 μM ATP): 1000 nM
8 | CNC(=O)C1CCN(c2ccc(-c3ccnc(Nc4ccc(NC(C)=O)nc4)n3)cc2C#N)CC1 [DMX-68] | 30 to 300 | – | 30 to 300 | – | –
9 | CN(C)CCNc1ccc(Nc2nccc(-c3ccc(N4CC[C@H](F)C4)c(C#N)c3)n2)cn1 [DMX-69] | < 30 | 4 | < 30 | 4 | inhibition at 1 µM (IKKβ; [6]): 54%; IC50 (IKKβ; 10 μM ATP): 1000 nM; inhibition at 1 µM (Jnk1; 10 μM ATP): 43%; IC50 (Jnk1; single point, 10 μM ATP): 1000 nM
10 | CC(=O)Nc1ccc(Nc2nccc(-c3ccc(N4CCC[C@H]4C(N)=O)c(C#N)c3)n2)cn1 [DMX-70] | 30 to 300 | – | 30 to 300 | – | –
11 | COC[C@H]1CCCN1c1ccc(-c2ccnc(Nc3ccc(NC(C)=O)nc3)n2)cc1C#N [DMX-71] | < 30 | – | < 30 | – | –
12 | CN(C)CCNc1ccc(Nc2nccc(-c3ccc(N4CCC[C@@H]4C(N)=O)c(C#N)c3)n2)cn1 [DMX-72] | 30 to 300 | – | 30 to 300 | – | –
13 | CC(=O)Nc1ccc(Nc2nccc(-c3ccc(N4CC[C@@H](O)C4)c(C#N)c3)n2)cn1 [DMX-73] | < 30 | – | < 30 | – | –
14 | Cn1cc(Nc2nccc(-c3ccc(N4CC[C@H](O)C4)c(C#N)c3)n2)cn1 [DMX-74] | < 30 | – | < 30 | – | –
15 | Cn1cc(Nc2nccc(-c3ccc(N4CCC(C(N)=O)CC4)c(C#N)c3)n2)cn1 [DMX-75] | < 30 | – | 30 to 300 | – | –
16 | CO[C@H]1CCN(c2ccc(-c3ccnc(Nc4ccc(NC(C)=O)nc4)n3)cc2C#N)C1 [DMX-76] | < 30 | – | < 30 | – | –
17 | CN1CCC(Nc2ccc(Nc3nccc(-c4ccc(N5CC[C@@H](F)C5)c(C#N)c4)n3)cn2)CC1 [DMX-77] | < 30 | – | < 30 | – | –
18 | CN1CCC(Nc2ccc(Nc3nccc(-c4ccc(N5CC[C@H](F)C5)c(C#N)c4)n3)cn2)CC1 [DMX-78] | < 30 | – | < 30 | – | –
19 | CN1CCC(Nc2ccc(Nc3nccc(-c4ccc(N5CC[C@H](O)C5)c(C#N)c4)n3)cn2)CC1 [DMX-79] | < 30 | – | < 30 | – | –
20 | CN1CCC(Nc2ccc(Nc3nccc(-c4ccc(N5CCC(F)(F)C5)c(C#N)c4)n3)cn2)CC1 [DMX-80] | < 30 | – | < 30 | – | –
